Experimental findings from patent publication US20210052532A1, “COMPOSITIONS AND METHODS FOR TREATMENT OF INSULIN RESISTANCE” (TEMPLE UNIVERSITY - OF THE COMMONWEALTH SYSTEM OF HIGHER …, priority 2018, published 2021) are described below.

Data set [1] is described as follows: Adduct formation with the reactive aldehyde 4-HNE. The settings on record: diverts 4-HNE from damaging GLUT-4 by carbonylation. From the text:
(§1) Without wishing to be bound by any theory, compounds of Formula I-III form adducts with reactive aldehydes such as 4-HNE, thereby diverting 4-HNE from damaging proteins such as GLUT-4, by carbonylation. […] Restoration of GLUT-4 function results in enhancement or restoration of adipocyte insulin sensitivity and the resumption or enhancement of glucose uptake.

Data set [2] has as its system adipocyte glucose uptake. Nature of the data set: Overnutrition-induced adipocyte glucose uptake impairment. In kind it is cell-based. Particulars: adipocytes.
Description: as §1

Data set [3] has as its system 3T3-L1 adipocytes. Nature of the data set: Insulin-stimulated glucose uptake in 3T3-L1 adipocytes, measured by MRM. It counts as cell-based. Particulars: 3T3-L1 adipocytes treated 4 hr with 20 M (so in the source) of 4-HNE or H2O2 or both, then 100 nM insulin 60 min; FIG. 4 legend: 4-HNE 20 μM, H2O2 100 μM. On the procedure: FIG. 4 graphically depicts glucose transport impairment in 3T3-L1 cells when exposed to 4-HNE (20 μM) and/or H2O2 (100 μM) for 4 hr.
(§2) GLUT4 carbonylations impair its function. To directly link the function impairment due to GLUT4 carbonylations to insulin resistance in vitro, GLUT4-SNAP fusion construct were generated and retroviral transduction in 3T3-L1 adipocytes were performed to overexpress the GLUT4-SNAP protein. Twenty-four hours after the transduction, the cells were treated with and without 20 μM of 4-HNE for an additional 4h. This 4-HNE dose was chosen because it was similar to the physiological levels and was non-toxic. […] 3T3-L1 adipocytes were treated with either 20 M of 4-HNE or H2O2 or the combination of both for 4 hr and were then stimulated with 100 nM insulin for 60 min. The glucose uptake was measured by an MRM method.

For data set [4], the system named is GLUT4-SNAP protein. Nature of the data set: Formation of K264-HNE GLUT4 adduct in 3T3-L1 cells overexpressing GLUT4-SNAP (MRM). It counts as cell-based. Particulars: 4-HNE 20 μM for 4 hr, FIG. 3. The source says: FIG. 3 provides typical MRM data showing an increase in the transitions of HNE-induced K264-HNE adduct (left panel) which were used to calculate the amounts of carbonylated GLUT4 (right panel). Four transitions of the GLUT4 peptide found in humans are shown. The sequence of the carbonylated GLUT4 peptide LTGWADVSGVLAELKDEK-4HNE (SEQ ID NO:1) is depicted.
Certain conditions such as overnutrition can lead to oxidative stress, and the generation of reactive aldehydes such as 4-HNE, which react with cysteine, lysine and histidine residues of proteins via Michael addition and Schiff base formation. 4-HNE can form HNE-Michaels adducts on GLUT4, the major insulin-facilitated glucose transporter in adipose tissue. 3T3-L1 adipocytes retrovirally transduced to overexpress the GLUT4-SNAP protein formed a K264-HNE GLUT4 adduct upon treatment with 4-HNE. The same K264-HNE GLUT4 adduct is elevated in the fat tissue of human pre-diabetic and diabetic individuals.
GLUT4 carbonylations impair its function. To directly link the function impairment due to GLUT4 carbonylations to insulin resistance in vitro, GLUT4-SNAP fusion construct were generated and retroviral transduction in 3T3-L1 adipocytes were performed to overexpress the GLUT4-SNAP protein. […] The glucose uptake was measured by an MRM method.

Data set [5] has as its system 3T3-L1 adipocytes. The experiment in a line: Toxicity of the 4-HNE dose to the treated cells. It counts as cell-based. Particulars: 20 μM of 4-HNE, 4h, transduced 3T3-L1 adipocytes. The method, then:
as §2

SMILES strings stand for the structures.

Turning to `Cl.Cl.NCCCNCCCC[C@H](N)C(=O)O` [Example 4, (S)-2-amino-6-((3-aminopropyl)amino)hexanoic acid dihydrochloride], in data set [1], the “adduct formation with 4-HNE” value is recorded as “forms an adduct with 4-HNE”. For the same compound, in data set [2], the “effect on glucose uptake impairment” value was “reversing overnutrition-induced glucose uptake impairment”.
In the case of `CCCCCC(O)/C=C/C=O` (stereo not drawn) [Example 4-HNE, 4-hydroxynonenal], the “glucose uptake reduced / decrease in the glucose uptake” value in data set [3] was found to be 32%. The “formation of the K264-HNE adduct” value in data set [4] is “induced the formation of the K264-HNE adduct”. Besides, the toxicity of dose entry in data set [5] was “non-toxic”.
For `OO` [Example H2O2], the “glucose uptake reduced / decrease in the glucose uptake” value in data set [3] was determined as 66%.
